Data published in patent US12534469B2 (CHILDREN'S HOSPITAL MEDICAL CENTER, priority 2020, dated 2026).
pIC50: −log10 of the molar value.

Assays:
Assay type in all cases: biochemical
[1] = biological target: T1, IRAK1 (Homo sapiens, UniProt P51617); test: RBC HotSpot Kinase Assay, IRAK1
T1 construct: purchased Reaction Biology (RBC HotSpot Kinase Assay)
Description: (§1) This assay uses the isolated kinase enzyme. This assay is very useful for determining competition of the inhibitor for ATP and/or substrates and for measuring the kinetics of enzyme inhibition. […] Unlike kinase binding assays that measure competition for ATP, the HotSpot Kinase Assay is a functional assay that measures catalytic activity; as such it measures relative functional potency regardless of the mechanism of enzyme inhibition. This assay uses the form of the various enzymes that are easiest to express, which may not necessarily be the form of the enzyme that exist in the cell. (Sometimes the carboxy terminus has been truncated to aid in expression, or, if it is a receptor kinase, the enzyme itself is isolated from the other parts of the receptor that are involved in regulating kinase activity.)
(§2) The reagent used was as follows: Base Reaction buffer; 20 mM Hepes (pH 7.5), 10 mM MgCl2, 1 mM EGTA, 0.01% Brij35, 0.02 mg/ml BSA, 0.1 mM Na3VO4, 2 mM DTT, 1% DMSO. Required cofactors were added individually to each kinase reaction.
(§3) The reaction procedure was as follows: • 1) Substrates were prepared in freshly prepared Reaction Buffer. • 2) Any required cofactors were delivered to the substrate solution above. • 3) Kinase was delivered into the substrate solution and gently mixed. • 4) Compounds were delivered in 100% DMSO into the kinase reaction mixture by Acoustic technology (Echo550; nanoliter range), followed by incubation for 20 min at room temp. • 5) ^33P-ATP was delivered into the reaction mixture to initiate the reaction. • 6) The mixture was incubated for 2 hours at room temperature. • 7) Kinase activity was detected by P81 filter-binding method.

[2] = biological target: T2, FLT3 (Homo sapiens, UniProt P36888); test: RBC HotSpot Kinase Assay, FLT3
T2 construct: purchased Reaction Biology (RBC HotSpot Kinase Assay)
T2 sequence (P36888 564-958 limits assumed): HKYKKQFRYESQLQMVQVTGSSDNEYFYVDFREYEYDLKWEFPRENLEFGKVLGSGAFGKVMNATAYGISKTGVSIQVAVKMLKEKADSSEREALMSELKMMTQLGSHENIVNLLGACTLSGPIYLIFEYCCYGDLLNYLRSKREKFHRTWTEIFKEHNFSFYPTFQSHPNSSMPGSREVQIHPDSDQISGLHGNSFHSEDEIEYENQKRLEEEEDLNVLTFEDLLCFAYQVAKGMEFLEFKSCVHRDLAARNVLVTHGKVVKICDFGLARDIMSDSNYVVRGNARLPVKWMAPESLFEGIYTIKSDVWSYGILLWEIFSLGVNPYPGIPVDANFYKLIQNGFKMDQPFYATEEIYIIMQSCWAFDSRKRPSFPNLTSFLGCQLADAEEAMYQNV
Description: as §1, §2, §3

[3] = biological target: T3, IRAK4 (Homo sapiens, UniProt Q9NWZ3); test: RBC HotSpot Kinase Assay, IRAK4; set-up: purchased Reaction Biology (RBC HotSpot Kinase Assay)
T3 sequence (Q9NWZ3 1-460): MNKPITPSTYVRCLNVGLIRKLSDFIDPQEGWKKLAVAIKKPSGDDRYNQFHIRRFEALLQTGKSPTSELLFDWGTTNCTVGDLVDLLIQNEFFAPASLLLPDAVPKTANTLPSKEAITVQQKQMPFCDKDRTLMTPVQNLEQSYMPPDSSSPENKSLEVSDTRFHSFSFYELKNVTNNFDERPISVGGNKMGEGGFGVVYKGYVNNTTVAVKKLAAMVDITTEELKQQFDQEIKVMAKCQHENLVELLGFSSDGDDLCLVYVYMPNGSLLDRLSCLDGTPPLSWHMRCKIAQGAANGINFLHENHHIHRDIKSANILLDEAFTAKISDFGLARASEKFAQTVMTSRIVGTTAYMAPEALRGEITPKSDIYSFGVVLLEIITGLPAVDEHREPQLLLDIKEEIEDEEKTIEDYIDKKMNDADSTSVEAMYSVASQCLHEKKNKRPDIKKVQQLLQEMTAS
Description: as §1, §2, §3

T1 sequence (P51617 whole entry): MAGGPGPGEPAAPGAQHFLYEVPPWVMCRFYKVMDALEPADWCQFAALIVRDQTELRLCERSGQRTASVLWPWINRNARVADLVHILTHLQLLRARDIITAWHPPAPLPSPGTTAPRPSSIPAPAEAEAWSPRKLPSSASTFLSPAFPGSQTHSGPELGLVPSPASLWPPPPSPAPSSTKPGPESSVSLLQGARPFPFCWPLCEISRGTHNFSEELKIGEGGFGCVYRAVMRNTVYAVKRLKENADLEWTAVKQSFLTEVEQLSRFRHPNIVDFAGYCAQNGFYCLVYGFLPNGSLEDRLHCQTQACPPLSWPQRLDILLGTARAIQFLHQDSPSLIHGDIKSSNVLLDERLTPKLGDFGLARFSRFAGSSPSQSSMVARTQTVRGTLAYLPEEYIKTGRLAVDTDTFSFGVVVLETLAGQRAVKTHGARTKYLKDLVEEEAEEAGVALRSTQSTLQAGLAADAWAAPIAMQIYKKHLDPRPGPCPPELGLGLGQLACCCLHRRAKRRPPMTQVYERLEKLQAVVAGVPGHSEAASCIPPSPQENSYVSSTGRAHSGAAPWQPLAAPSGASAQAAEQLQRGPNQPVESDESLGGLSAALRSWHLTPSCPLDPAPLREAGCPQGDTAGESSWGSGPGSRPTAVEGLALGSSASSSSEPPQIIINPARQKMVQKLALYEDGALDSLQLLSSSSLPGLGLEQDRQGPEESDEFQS

Compound	pIC50 [1]	pIC50 [2]	pIC50 [3]
FC1(F)CNCC1Nc1cccc(-c2cnc3ccc(-c4cnn5ccccc45)nn23)n1 (stereo not drawn) [Compound 56, N-(4,4-difluoropyrrolidin-3-yl)-6-(6-(pyrazolo[1,5-a]pyridin-3-yl)imidazo[1,2-b]pyridazin-3-yl)pyridin-2-amine]	7.10	9.10	9.00
F[C@H]1CNC[C@@H]1Nc1cccc(-c2cnc3ccc(N4CCCCC4)nn23)n1 [Compound 94, N-((3S,4S)-4-fluoropyrrolidin-3-yl)-6-(6-(piperidin-1-yl)imidazo[1,2-b]pyridazin-3-yl)pyridin-2-amine]	5.98	8.22	7.48
c1cc(NC2CC3(CNC3)C2)nc(-c2cnc3ccc(-c4cnn(C5CNC5)c4)nn23)c1 [Compound 37, N-(6-(6-(1-(azetidin-3-yl)-1H-pyrazol-4-yl)imidazo[1,2-b]pyridazin-3-yl)pyridin-2-yl)-2-azaspiro[3.3]heptan-6-amine]	< 5.00	8.15	5.36
F[C@H]1CNC[C@@H]1Nc1cccc(-c2cnc3ccc(N4CCOCC4)nn23)n1 [Compound 95, N-((3S,4S)-4-fluoropyrrolidin-3-yl)-6-(6-morpholinoimidazo[1,2-b]pyridazin-3-yl)pyridin-2-amine]	5.93	8.40	7.62
Cn1cc(-c2ccc3ncc(-c4cccc(NC5CC6(CCNC6)C5)n4)n3n2)cn1 (stereo not drawn) [Compound 42, N-(6-(6-(1-methyl-1H-pyrazol-4-yl)imidazo[1,2-b]pyridazin-3-yl)pyridin-2-yl)-6-azaspiro[3.4]octan-2-amine]	5.65	8.52	6.95
COc1cc2ncc(-c3cccc(N[C@H]4CNC[C@@H](F)C4)n3)n2nc1C1(C(F)(F)F)CC1 [Compound 86, N-((3R,5S)-5-fluoropiperidin-3-yl)-6-(7-methoxy-6-(1-(trifluoromethyl)cyclopropyl)imidazo[1,2-b]pyridazin-3-yl)pyridin-2-amine]	6.03	8.70	7.43
c1cc(NC2CC3(CNC3)C2)nc(-c2cnc3ccc(-c4cn[nH]c4)nn23)c1 [Compound 31, N-(6-(6-(1H-pyrazol-4-yl)imidazo[1,2-b]pyridazin-3-yl)pyridin-2-yl)-2-azaspiro[3.3]heptan-6-amine]	7.31	9.30	8.22
c1cc(NC2CC3(CCNC3)C2)nc(-c2cnc3ccc(-c4cnn(C5CCOCC5)c4)nn23)c1 (stereo not drawn) [Compound 41, N-(6-(6-(1-(tetrahydro-2H-pyran-4-yl)-1H-pyrazol-4-yl)imidazo[1,2-b]pyridazin-3-yl)pyridin-2-yl)-6-azaspiro[3.4]octan-2-amine]	< 5.00	7.74	5.46
FC(F)n1cc(-c2ccc3ncc(-c4cccc(N[C@@H]5CCCNC5)n4)n3n2)cn1 [Compound 16]	5.51	> 9.30	6.80
CC(C)(O)Cn1cc(-c2ccc3ncc(-c4cccc(N[C@@H]5CCCNC5)n4)n3n2)cn1 [Compound 18, (R)-2-methyl-1-(4-(3-(6-(piperidin-3-ylamino)pyridin-2-yl)imidazo[1,2-b]pyridazin-6-yl)-1 H-pyrazol-1-yl)propan-2-ol]	5.61	8.40	5.85
F[C@@H]1CNCC[C@H]1Nc1cccc(-c2cnc3ccc(C4CC4)nn23)n1 [Compound 73, 6-(6-cyclopropylimidazo[1,2-b]pyridazin-3-yl)-N-((3R,4R)-3-fluoropiperidin-4-yl)pyridin-2-amine]	5.74	8.00	6.53
F[C@H]1CNC[C@@H]1Nc1cccc(-c2cnc3ccc(N4CCC4)nn23)n1 [Compound 93, 6-(6-(azetidin-1-yl)imidazo[1,2-b]pyridazin-3-yl)-N-((3S,4S)-4-fluoropyrrolidin-3-yl)pyridin-2-amine]	5.57	8.40	7.41
F[C@H]1CNCC[C@@H]1Nc1cccc(-c2cnc3ccc(-c4cnn(C5CC5)c4)nn23)n1 [Compound 7, 6-(6-(1-cyclopropyl-1 H-pyrazol-4-yl)imidazo[1,2-b]pyridazin-3-yl)-N-((3S,4S)-3-fluoropiperidin-4-yl)pyridin-2-amine]	6.55	8.40	7.28
COc1cc2ncc(-c3cccc(N[C@H]4CNC[C@@H]4F)n3)n2nc1-c1cn[nH]c1 [Compound 119]	7.12	> 9.30	> 9.30
F[C@H]1CNC[C@@H]1Nc1cccc(-c2cnc3ccc(-c4cnn(C5CC5)c4)nn23)n1 [Compound 3, 6-(6-(1-cyclopropyl-1 H-pyrazol-4-yl)imidazo[1,2-b]pyridazin-3-yl)-N-((3S,4S)-4-fluoropyrrolidin-3-yl)pyridin-2-amine]	6.35	9.00	7.15
CC(C)(C)c1ccc2ncc(-c3cccc(N[C@H]4CNC[C@@H]4F)n3)n2n1 [Compound 80, 6-(6-(tert-butyl)imidazo[1,2-b]pyridazin-3-yl)-N-((3S,4S)-4-fluoropyrrolidin-3-yl)pyridin-2-amine]	5.47	7.96	6.64
O[C@H]1CNC[C@@H]1Nc1cccc(-c2cnc3ccc(C4CC4)nn23)n1 [Compound 70, (3S,4S)-4-((6-(6-cyclopropylimidazo[1,2-b]pyridazin-3-yl)pyridin-2-yl)amino)pyrrolidin-3-ol]	5.28	7.74	6.23
FC(F)(F)[C@H]1CNC[C@@H]1Nc1cccc(-c2cnc3ccc(-c4cnn(C5CC5)c4)nn23)n1 [Compound 13, 6-(6-(1-cyclopropyl-1 H-pyrazol-4-yl)imidazo[1,2-b]pyridazin-3-yl)-N-((3R,4S)-4-(trifluoromethyl)pyrrolidin-3-yl)pyridin-2-amine]	5.74	8.70	6.97
c1cc(NC2CCNC2)nc(-c2cnc3ccc(-c4cnn(C5CCOCC5)c4)nn23)c1 (stereo not drawn) [Compound 29, N-(pyrrolidin-3-yl)-6-(6-(1-(tetrahydro-2H-pyran-4-yl)-1H-pyrazol-4-yl)imidazo[1,2-b]pyridazin-3-yl)pyridin-2-amine]	4.89	8.40	5.61
FC(F)n1cc(-c2ccc3ncc(-c4cccc(N[C@H]5CCNC[C@@H]5F)n4)n3n2)cn1 [Compound 6, 6-(6-(1-(difluoromethyl)-1 H-pyrazol-4-yl)imidazo[1,2-b]pyridazin-3-yl)-N-((3S,4S)-3-fluoropiperidin-4-yl)pyridin-2-amine]	6.53	8.40	7.21
Cn1cc(-c2ccc3ncc(-c4cccc(N[C@H]5CNC[C@@H]5C(F)(F)F)n4)n3n2)cn1 [Compound 11, 6-(6-(1-methyl-1 H-pyrazol-4-yl)imidazo[1,2-b]pyridazin-3-yl)-N-((3R,4S)-4-(trifluoromethyl)pyrrolidin-3-yl)pyridin-2-amine]	6.07	> 9.30	7.68
F[C@H]1CNC[C@@H]1Nc1cccc(-c2cnc3ccc(NC4CCCCC4)nn23)n1 [Compound 92, N-cyclohexyl-3-(6-(((3S,4S)-4-fluoropyrrolidin-3-yl)amino)pyridin-2-yl)imidazo[1,2-b]pyridazin-6-amine]	5.79	7.11	5.97
c1cc(NC2CCNC2)nc(-c2cnc3ccc(-c4cn[nH]c4)nn23)c1 (stereo not drawn) [Compound 26, 6-(6-(1H-pyrazol-4-yl)imidazo[1,2-b]pyridazin-3-yl)-N-(pyrrolidin-3-yl)pyridin-2-amine]	6.94	9.05	7.70
